# Assay results: US20080096922A1, “Novel Sulfonamide derivative” (Dainippon Sumitomo Pharma Co., Ltd., priority 2004, published 2008)
# Counter-ions that a name gives are not always drawn.
# What was measured:
# [1] = system: LDL receptor; experiment: Effects on an activity of a LDL receptor: uptake amount of DiI-LDL into HepG2 cell; format: cell-based, human; settings: control group as 100%
# Method: The 1,1′-dioctadecyl-3,3,3′,3′-tetramethylindocarbocyanine perchlorate (DiI)-labeled LDL (DiI-LDL) was prepared as follows. That is, a DiI (Invitrogen Corp., U.S.A) was mixed with a human LDL (Chemicon International, Inc., U.S.A) and the mixture was incubated at 37° C. for 8 hours. […] After centrifugation, the DiI-labeled LDL fraction was separated and dialyzed with a physiological saline to prepare the above desired solution.
# The effects on a LDL receptor activity were determined as the uptake amount of DiI-LDL into HepG2 cell. The cultured human hepatic cell line HepG2 cell was purchased from the Dainippon Pharmaceuticals Co. Ltd. (Osaka, Japan). The HepG2 cells were seeded in a 96 well plate and were incubated in the Dulbecco's modified Eagle/F-12 (DMEM/F-12) medium containing 10% fetal bovine serum and antibiotics in a CO2 incubator at 37° C. for two to three days. After washing the cells, a DMEM/F-12 medium containing 5-10% lipoprotein-deficient serum, the test substrate and the antibiotics were added thereto and the cells were incubated at 37° C. for 19 hours. After adding DiI-LDL, the cells were incubated in a CO2 incubator at 37° C. for another 5 hours. The uptake amount of non-specific DiI-LDL was measured by adding 30 to 50 folds amount of the non-labeled LDL. After washing the cells with Dulbecco's phosphate buffer (Sigma Corp., U.S.A.), the Dulbecco's phosphate buffer was added to each well and then the uptake amount of DiI-LDL into the cell line were measured as the value of fluorescence. After measuring the fluorescence, the Dulbecco's phosphate buffer was removed and thereto was added 1N sodium hydroxide solution to dissolve the cells and the amount of protein was measured by using a part of the resulting solution. The effect on a LDL receptor activity by each compound was determined by calculating the ratio of the amount of fluorescence/the amount of protein, and by subtracting the non-specific uptake amount therefrom and then calculating the control group as 100%.
# [2] = system: LDL receptor protein; experiment: Measurement of an expression of a LDL receptor (immunoblotting, HepG2); format: cell-based, human; settings: HepG2 cell, test compound at 0.1 and 1 μM, compared to a control group
# Method: The activity of potentiating an expression of a LDL receptor by the test compounds were measured using a human hepatic cell line HepG2. Cells were seeded in a 6 well plate at the density of 7.5×10^5 cells/well (at first day). On third days, the medium was changed to a medium containing lipoprotein-deficient serum and the test compound. On forth days, the cells were scraped and collected by a centrifugation. The recovered cells were dissolved in a cell lysate buffer containing 0.1% TritonX-100 and after centrifugation, the supernatant was used as a solution of cell protein. The amount of the LDL-R protein was evaluated by an immunoblotting method using the above-prepared solution of cell protein.
# After treating the HepG2 cell with the compound of Example 1-2, the amount of LDL receptor protein was detected by an immunoblotting method.
smiles,measurement,setting,value
"COc1cccc(C2(C(=O)NS(=O)(=O)Oc3c(C(C)C)cccc3C(C)C)CCN(c3ccccc3OC)CC2)c1 [Example 1-2, 2,6-diisopropylphenyl {[1-(2-methoxyphenyl)-4-(3-methoxyphenyl)piperidin-4-yl]carbonyl}sulfamate]",Activity of (%) LDL receptor,[1]; 10 μM,124%
same,amount of a LDL receptor protein,[2],superior increasing effect
"COc1cccc([C@]2(CNS(N)(=O)=O)CC[C@@H](NCc3ccc(-c4ccccc4)cc3)CC2)c1.Cl [Example 42, N-{[cis-4-[(biphenyl-4-ylmethyl)amino]-1-(3-methoxyphenyl)cyclohexyl]methyl}sulfamide hydrochloride]",Activity of (%) LDL receptor,[1]; 1 μM,188%
"COc1cccc([C@]2(CNS(N)(=O)=O)CC[C@H](NCc3ccc(-c4ccccc4)cc3)CC2)c1 [Example 43, N-{[trans-4-[(biphenyl-4-ylmethyl)amino]-1-(3-methoxyphenyl)cyclohexyl]methyl}sulfamide hydrochloride]",Activity of (%) LDL receptor,[1]; 3 μM,146%
"COc1cccc([C@]2(CNS(=O)(=O)N(C)C(=O)OC(C)(C)C)CC[C@@H](NCc3ccc(-c4ccccc4)cc3)CC2)c1 [Example 48, tert-butyl [({[cis-4-[(biphenyl-4-ylmethyl)amino]-1-(3-methoxyphenyl)cyclohexyl]methyl}amino)sulfonyl]methylcarbamate]",Activity of (%) LDL receptor,[1]; 1 μM,145%
"CNS(=O)(=O)NC[C@]1(c2cccc(OC)c2)CC[C@H](NCc2ccc(-c3ccccc3)cc2)CC1.Cl [Example 49, N-{[cis-4-[(biphenyl-4-ylmethyl)amino]-1-(3-methoxyphenyl)cyclohexyl]methyl}-N′-methylsulfamide hydrochloride]",Activity of (%) LDL receptor,[1]; 1 μM,208%
"COc1cccc([C@]2(CNS(N)(=O)=O)CC[C@H](NC3CCN(Cc4ccccc4)CC3)CC2)c1 [Example 55, N-{[trans-4-[(1-benzylpiperidin-4-yl)amino]-1-(3-methoxyphenyl)cyclohexyl]methyl}sulfamide dihydrochloride]",Activity of (%) LDL receptor,[1]; 10 μM,140%
"COc1cccc(C2(C(=O)NS(=O)(=O)Oc3c(C(C)C)cccc3C(C)C)CC3CCCC(C2)N3c2ccccc2OC)c1.Cl (centres unmarked) [Example 57, 2,6-diisopropylphenyl {[9-(2-methoxyphenyl)-3-(3-methoxyphenyl)-9-azabicyclo[3.3.1]nonan-3-yl]carbonyl}sulfamate hydrochloride]",Activity of (%) LDL receptor,[1]; 3 μM,124%
